Here are results for 2 molecules from US8093387B2, “Process of making crystalline type II aripiprazole” (Synthon BV, priority 2005, dated 2012).

Data set [1] is described as follows: hygroscopicity of solid state forms of aripiprazole. The data set is classed as physicochemical. Conditions: crystalline Type II, not milled.
For data set [2] the following is noted: as taught by WO 03/26659 (EP 1330249); cited from earlier work.

Each structure is given as a SMILES string. Like-named read-outs stand apart in the source and are kept apart here.

Take `O=C1CCc2ccc(OCCCCN3CCN(c4cccc(Cl)c4Cl)CC3)cc2N1` [Type II aripiprazole, 7-[4-[4-(2,3-dichlorophenyl)-1-piperazinyl]butoxy]-3,4-dihydrocarbostyril]: the hygroscopicity entry in data set [1] was “not hygroscopic”.

For `O=C1CCc2ccc(OCCCCN3CCN(c4cccc(Cl)c4Cl)CC3)cc2N1` [Type I aripiprazole, 7-[4-[4-(2,3-dichlorophenyl)-1-piperazinyl]butoxy]-3,4-dihydrocarbostyril], the hygroscopicity result in data set [2] is listed as “significantly hygroscopic”.
